Measurements as given in PubChem BioAssay (NCI).
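48-hour exposure; five concentrations; linearly interpolated endpoints. At the GI50, growth is halved. TGI: concentration producing complete growth inhibition.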

Tests used:
Assay in all cases: inhibition of tumour cell growth, NCI panel, 48 h
786-0 renal = tested on: 786-0 renal
ACHN renal = tested on: ACHN renal
COLO 205 colon = tested on: COLO 205 colon
HL-60(TB) leukemia = tested on: HL-60(TB) leukemia
HOP-92 NSCLC = tested on: HOP-92 NSCLC
K-562 leukemia = tested on: K-562 leukemia
SN12C renal = tested on: SN12C renal
TK-10 renal = tested on: TK-10 renal
UACC-257 melanoma = tested on: UACC-257 melanoma
MALME-3M melanoma = tested on: MALME-3M melanoma

SMILES | TGI (786-0 renal) | TGI (ACHN renal) | TGI (COLO 205 colon) | TGI (HL-60(TB) leukemia) | TGI (HOP-92 NSCLC) | TGI (K-562 leukemia) | TGI (SN12C renal) | TGI (TK-10 renal) | TGI (UACC-257 melanoma) | TGI (MALME-3M melanoma) | GI50 (786-0 renal) | GI50 (ACHN renal) | GI50 (COLO 205 colon) | GI50 (HL-60(TB) leukemia) | GI50 (HOP-92 NSCLC) | GI50 (MALME-3M melanoma) | GI50 (SN12C renal) | GI50 (TK-10 renal) | GI50 (UACC-257 melanoma) | GI50 (K-562 leukemia)
C/C=C/C=C\C1OC(O)([C@H](CC)C(=O)NC/C=C/C=C(\C)[C@H](OC)C(C)C2OC(\C=C/C=C/C=C(\C)C(=O)c3c(O)ccn(C)c3=O)[C@H](O)[C@@H]2O)C(O)C(O)C1(C)C (stereo partly drawn) | > 100 µM | > 100 µM | > 100 µM | > 100 µM | > 100 µM | > 100 µM | > 100 µM | > 100 µM | > 100 µM | – | – | – | – | – | – | – | – | – | – | –
O=C(N/C(=C\c1ccc(Oc2ccc(Cl)c(Cl)c2)cc1)c1nc2ccccc2[nH]1)c1ccccc1 | 33 µM | 50.9 µM | 58 µM | – | 23.5 µM | 59.6 µM | 35.5 µM | 57.7 µM | – | 43.8 µM | – | – | – | – | – | – | – | – | – | –
CC(C)CCc1c(Cl)nc(Cl)nc1Cl | 46.3 µM | 92.3 µM | – | > 100 µM | – | > 100 µM | 57.9 µM | 35.5 µM | 34 µM | 50.7 µM | – | – | – | – | – | – | – | – | – | –
CN(C)c1ccc(O)c2c1C[C@H]1C[C@H]3[C@H](N(C)C)C(=O)C(C(N)=O)=C(O)[C@@]3(O)C(=O)C1=C2O | 22.3 µM | > 100 µM | 20.5 µM | 40.4 µM | 26.9 µM | – | > 100 µM | > 100 µM | > 100 µM | 33.3 µM | 4.45 µM | 4.09 µM | 5.51 µM | 7.44 µM | 3.6 µM | 7.51 µM | 4.8 µM | 16 µM | 8.99 µM | –
COc1ccccc1/C=N/N=C(\N)NO | 90 µM | > 100 µM | > 100 µM | – | 65.6 µM | > 100 µM | > 100 µM | – | > 100 µM | > 100 µM | – | – | – | – | – | – | – | – | – | –
COc1cc2cccc(NC(=O)c3cc(OC)c(OC)c(OC)c3Br)c2cc1OC | > 100 µM | 75.5 µM | 26.6 µM | – | – | 46.6 µM | > 100 µM | 92.6 µM | 16.7 µM | 49.8 µM | – | – | – | – | – | – | – | – | – | –
C=CCN=C1NC(=O)C(CC(=O)Nc2ccc(C)cc2)S1 (stereo not drawn) | > 100 µM | > 100 µM | > 100 µM | > 100 µM | – | > 100 µM | > 100 µM | > 100 µM | – | > 100 µM | – | – | – | – | – | – | – | – | – | –
O=C(NCP(=O)(O)O)c1cccnc1 | > 100 µM | > 100 µM | > 100 µM | > 100 µM | > 100 µM | > 100 µM | > 100 µM | > 100 µM | > 100 µM | – | – | – | – | – | – | – | – | – | – | –
COc1ccc2c(c1)CC1c3c(cc4c(c3-2)OCO4)CCN1C (stereo not drawn) | > 100 µM | 36.1 µM | 30.9 µM | – | 57 µM | > 100 µM | > 100 µM | 71.3 µM | 57.5 µM | 83.3 µM | – | – | – | – | – | – | – | – | – | –
CCCCCCCCCCCC[n+]1ccc(C(N)=O)cc1 | 12.7 µM | 22 µM | 2.98 µM | – | – | > 100 µM | 12.6 µM | 4.26 µM | 17.8 µM | 8.81 µM | 3.33 µM | 6.06 µM | 1.55 µM | – | – | 2.59 µM | 3.61 µM | 1.73 µM | 4.24 µM | 2.87 µM
C=C1C(=O)O[C@H]2[C@H]1CC/C(CNS(=O)(=O)c1cccc3ccccc13)=C\CC[C@@]1(C)O[C@@H]21 | 3.27 µM | 2.56 µM | 3.49 µM | 3.76 µM | 2.8 µM | – | 7.74 µM | 3.08 µM | 3.89 µM | 4.09 µM | 1.61 µM | 1.19 µM | 1.73 µM | 1.21 µM | 1.11 µM | 1.77 µM | 2.12 µM | 1.48 µM | 1.64 µM | –
CC1/C(=N/Nc2ccc([N+](=O)[O-])cc2)CC2C3(C)CCC2(C(C)C(=O)O)C(=O)C13 (stereo not drawn) | > 100 µM | > 100 µM | > 100 µM | – | > 100 µM | – | > 100 µM | > 100 µM | > 100 µM | > 100 µM | 11.3 µM | 6.33 µM | 9 µM | – | 23.6 µM | > 100 µM | 60.9 µM | 9.98 µM | > 100 µM | –
COC(=O)c1cc2oc(/C=C3\SC(=S)N(NC(C)=O)C3=O)cc2n1Cc1ccccc1 | 18.6 µM | 10.5 µM | 12.6 µM | 13.8 µM | 2.59 µM | > 50 µM | 20.8 µM | 15.5 µM | 16.4 µM | – | 8.2 µM | 3.68 µM | 5.63 µM | 2.14 µM | 0.196 µM | – | 11.3 µM | 6.14 µM | 5.69 µM | 1.08 µM
